Test results from US20080011191A1, “Novel Azo Compound or Salt, Ink Composition Comprising Such Azo Compound, and Colored Article” (priority 2004, published 2008).

Key:
Assay type in all cases: physicochemical
[1] = Xenon light fastness test of a recorded image; conditions: xenon weatherometer Ci4000, 50 hours, 0.36 W/m^2, 2 mm glass plate and air layer, printed glossy paper and plain paper
Protocol: (§1) A liquid of a composition shown in the following Table 3 is prepared using a compound (Compound No. 1) obtained in (2) of the above Example 1, followed by filtration with a 0.45 μm membrane filter to obtain each water-based ink composition for inkjet recording. Ion exchange water was used as water. In addition, water and ammonia water were added thereto to adjust the pH of the ink composition to 7 to 10 and a total amount of the ink composition to 100 parts. The test using the compound obtained in (2) of Example 1 is Example 7. Similarly the tests using the compounds obtained in Examples 2 to 6 are Examples 8 to 12 respectively.
(§2) Using an inkjet printer (Pixus 860i from Canon Inc.), inkjet recording was conducted on glossy paper having an ink-receiving layer containing a porous white inorganic substance (Professional Photopaper PR-101 from Canon Inc.). In inkjet recording, an image pattern was made so as to obtain gradations of several stages in printing density, and a print was made.
Using a xenon weatherometer Ci4000 (from ATLAS Co., Ltd.), pieces of testing paper of printed glossy paper and plain paper from Canon, Inc., on which a glass plate having a thickness of 2 mm and an air layer were set up, were irradiated for 50 hours at illuminance of 0.36 W/m^2, and color difference (ΔE) before and after the test was measured and evaluated on 3 levels. • ΔE≦10 . . . ∘ • 10<ΔE≦20 . . . Δ • 20<ΔE . . . x The results are shown in Table 5. (E) Ozone Gas Fastness Test of a Recorded Image

[2] = Ozone gas fastness test of a recorded image; conditions: ozone 40 ppm, 60% RH, 24° C., 3 hours, glossy paper
Protocol: A liquid of a composition shown in the following Table 3 is prepared using a compound (Compound No. 1) obtained in (2) of the above Example 1, followed by filtration with a 0.45 μm membrane filter to obtain each water-based ink composition for inkjet recording. Ion exchange water was used as water. In addition, water and ammonia water were added thereto to adjust the pH of the ink composition to 7 to 10 and a total amount of the ink composition to 100 parts. The test using the compound obtained in (2) of Example 1 is Example 7. Similarly the tests using the compounds obtained in Examples 2 to 6 are Examples 8 to 12 respectively. Using an inkjet printer (Pixus 860i from Canon Inc.), inkjet recording was conducted on glossy paper having an ink-receiving layer containing a porous white inorganic substance (Professional Photopaper PR-101 from Canon Inc.). In inkjet recording, an image pattern was made so as to obtain gradations of several stages in printing density, and a print was made. Using an ozone weatherometer (from Suga Testing Machine Co., Ltd.), a piece of testing paper printed on glossy paper from Canon, Inc. was left for 3 hours under conditions of ozone concentration of 40 ppm, humidity of 60% RH and temperature of 24° C., and color difference (ΔE) before and after the test was measured and evaluated on 3 levels. • ΔE≦20 . . . ∘ • 20<ΔE≦40 . . . Δ • 40<ΔE . . . x

[3] = Evaluation of hue and vividness of a recorded image on glossy paper (colorimetry, GRETAG SPM50); conditions: for Vividness C*: C*=((a*)^2+(b*)^2)^1/2, glossy paper PR-101; for Vividness C* (3-level evaluation): glossy paper PR-101; for Brilliance L* / Hue a* / Hue b*: inkjet print of Table 3 ink (3.0 parts compound) on glossy paper Professional Photopaper PR-101
Protocol: as §1, §2
Hue and vividness in a recorded image : recorded paper was measured using a colorimetric system (GRETAG SPM50 from GRETAG Co., Ltd.), values of L*, a* and b* were calculated, and for vividness, C*=((a*)^2+(b*)^2)^1/2 was calculated from color level (a* and b*) where color level a* of each recording paper is similar. And vividness was evaluated on the following 3 levels judging from the measured results and the results are shown jointly in Table 4. • 90≦C* . . . ∘ • 80≦C*<90 . . . Δ

SMILES	Light fastness (color difference ΔE before and after the test, 3 levels) [1]	Ozone fastness (color difference ΔE before and after the test, 3 levels) [2]	Vividness C* [3]	Vividness C* (3-level evaluation) [3]	Brilliance L* [3]	Hue a* [3]	Hue b* [3]
Cc1c(C#N)c(NCCS(=O)(=O)O)nc(NCCS(=O)(=O)O)c1N=Nc1nc2ccc(S(C)(=O)=O)cc2s1 [Compound No. 3]	∘ (ΔE≦10)	∘ (ΔE≦20)	–	–	–	–	–
Cc1c(C#N)c(NCCS(=O)(=O)O)nc(NCCS(=O)(=O)O)c1N=Nc1nc2ccc(C(=O)O)cc2s1 [Compound No. 5]	∘ (ΔE≦10)	∘ (ΔE≦20)	–	–	–	–	–
Cc1c(C#N)c(NCCS(=O)(=O)O)nc(NCCS(=O)(=O)O)c1N=Nc1nc2ccc(S(=O)(=O)O)cc2s1 [Compound No. 2]	∘ (ΔE≦10)	∘ (ΔE≦20)	101.9	∘ (90≦C*)	68.3	53.5	86.8

Now from value to compound:

Light fastness (color difference ΔE before and after the test, 3 levels) [1]	Ozone fastness (color difference ΔE before and after the test, 3 levels) [2]	Vividness C* [3]	Vividness C* (3-level evaluation) [3]	Brilliance L* [3]	Hue a* [3]	Hue b* [3]	SMILES
∘ (ΔE≦10)	∘ (ΔE≦20)	–	–	–	–	–	Cc1c(C#N)c(NCCS(=O)(=O)O)nc(NCCS(=O)(=O)O)c1/N=N/c1snc2ccc(S(=O)(=O)O)cc12 [Compound No. 8]
∘ (ΔE≦10)	∘ (ΔE≦20)	–	–	–	–	–	COc1ccc2nc(N=Nc3c(NCCS(=O)(=O)O)nc(NCCS(=O)(=O)O)c(C#N)c3C)sc2c1 [Compound No. 4]
∘ (ΔE≦10)	∘ (ΔE≦20)	109.7	∘ (90≦C*)	66.8	53.7	96.1	Cc1c(C#N)c(NCCS(=O)(=O)O)nc(NCCS(=O)(=O)O)c1N=Nc1nc2ccccc2s1 [Compound No. 1]
